Measurements taken from US5716934A, “Eck receptor ligands” (Amgen Inc., priority 1995, dated 1998).

What was measured:
[1] = test system: granulation tissue in subcutaneously implanted wound chambers; assay: Rat wound chamber assay (granulation tissue formation); type: in vivo
Procedure: Male Sprague-Dawley specific pathogen free rats (300-350 g; Charles River Breeding Laboratories, Inc.) were used for this study. Rats were anesthetized with sodium pentobarbital (50 mg/kg body weight) by intraperitoneal injection. Using aseptic surgical technique, a 3 cm midline incision was made on the dorsal surface of the rat. A single pocket was formed under the panniculus carnosis by blunt dissection on one side of the animal. A 3 cm long×1 cm diameter sterile stainless steel wire mesh cylinder was then inserted subcutaneously. The wound chambers used were similar to those described by Schilling et. al. (Surgery 46, 702-710 (1959)) and utilized by Hunt et. al. (Am. J. Surg. 114, 302-307 (1967)) as wound healing models. The incision was closed with wound clips. The rats survived the operation well with no evidence of postoperative discomfort. Beginning 3 days after wound chamber implantation, the rats were randomly divided into 5 groups. At this time daily injections of 1) 10 μg CHO-derived EBP, 2) 1 μg CHO-derived EBP, 3) 8 μg E. coli derived EBP, 4) 5 μg recombinant platelet derived growth factor (PDGF), or 5) 0.1 ml sterile PBS and 1 mM CHAPS were begun and continued for a total of 9 days. The injections were made directly into the wound chamber through a silicone septum at the outer edge of the chamber. Twelve days after chamber implantation, the rats were sacrificed by CO2 asphyxiation. Immediately after sacrifice, the chambers were removed surgically and carefully opened. The enclosed granulation tissue was then weighed, and stored at -70° C. for future processing.
Granulation tissue samples were thawed and homogenized with a Polytron homogenizer in 2 ml of ice-cold distilled water for approximately 1 minute. Next, 2 ml of ice-cold 10% trichloroacetic acid was added to the homogenate and incubated at 4° C. for 1 hour. The TCA-precipitated samples were centrifuged (500 g, 10 minutes) at 4° C., washed once with 2 ml of ice-cold 5% TCA, and finally washed with 2 ml of ice-cold 95% ethanol containing 50 mM sodium acetate. Samples were defatted twice with 2 ml of ethanol:ether (3:1, v/v) at 20° C. After each defatting procedure, samples were centrifuged (500×g, 10 minutes) and the supernate discarded. The pellet was then dissolved in 1N sodium hydroxide and brought up to a volume of 10 ml.
Total protein was determined by taking an aliquot of the solubilized granulation tissue and assaying the sample according to the method of Bradford (Anal. Biochem. 72, 248-251 (1976)) Bovine serum albumin (Sigma Chemical Co., St. Louis, Mo.) was used for a protein standard curve.
Total DNA content was determined as deoxy-ribose by the colorimetric method of Burton (Biochem. J. 62, 315 (1956)). Briefly, a 1 ml aliquot of the solubilized sample (in 1N NaOH) was neutralized with the addition of 0.5 ml of 2N HCl. A 1 ml aliquot of the neutralized solution was extracted in 10% perchloric acid at 90° C. for 15 minutes. A 1 ml portion of the final extract was added to 2 ml activated diphenylamine (Sigma Chemical, St. Louis, Mo.) reagent and absorbance at 600 nm was measured after overnight incubation at room temperature. Hydrolyzed calf thymus DNA (Sigma) was used to construct the standard curve. The DNA content was measured as a rough index of the number of cells in the wound chamber, with the realization that cell type and cell cycle status also influence DNA content.
Total glycosaminoglycans (GAGs) were determined using chondroitin sulfate as a standard. A spectrophotometric assay for GAGs was run utilizing a change in absorption spectrum of the dye 1,9- dimethyl methylene blue (Farndale et al. Conn. Tiss. Res. 9, 247-248 (1982)).
Total collagen content was determined as hydroxyproline (an index of collagen content) after hydrolysis of the solubilized granulation tissue in 6N HCl at 110° C. for 24 hours. […]

eck receptor (p130^eck) = assay: p130eck autophosphorylation in LIM 2405 cells; type: cell-based, human; conditions: intact LIM 2405 cells, 10-15 min at 37° C.
Procedure: The LIM 2405 colorectal carcinoma cell line (Whitehead et al. Immunol. and Cell Biol. 70, 227 (1992)) was maintained in RPMI 1640 containing 5% FBS, 1 μg/ml insulin, 10 μg/ml hydrocortisone and 10 μM α-thioglycerol, and subpassaged by trypsination and dilution (1:5) into fresh media. Prior to assay 2.5×10^5 LIM 2405 cells were seeded into 6-well dishes (Falcon #3046) and incubated for 24 hr at 37° C. The media was discarded and replaced with serum-free RPMI 1640 containing 0.03% BSA, 1 μg/ml insulin, 10 μg/ml hydrocortisone and 10 μM α-thioglycerol, then incubated for 12-18 hr. In some experiments the cell cultures were labelled with ^32 P-orthophosphate (2 mCi/ml) in phosphate-free RPMI 1640 (Flow) for 2-3 hr prior to treatment. Growth factor stock solutions were prediluted at varying concentrations into 2.0 ml of serum-free media, then warmed to 37° C. Cell cultures were removed from the incubator, and the supernatant media discarded. Treatments were promptly added and the cell cultures incubated at 37° C. for 10-15 min. The cultures were then removed from the incubator, placed on ice, and the culture supernatant aspirated.
The treated cell cultures were chilled to 0° C. then washed once with ice-cold PBS (GIBCO). The residual PBS was aspirated and the cells were lysed by the addition of 1.0 ml of ice-cold RIPA buffer (10 mM sodium phosphate, pH 7.4, 150 mM sodium chloride, 0.1% sodium dodecyl sulfate, 1% NP-40, 1% deoxycholate, 1% Trasylol, 2 mM EDTA, 50 mM sodium fluoride and 100 mM sodium orthovanadate). After a 10 min incubation the lysates were transferred to 1.5 ml tubes and clarified by centrifugation for 30 min at 10,000×g. The clarified lysate supernatants were transferred to new tubes and immunoprecipitated with 1.0 μg/ml of affinity purified rabbit anti-Eck C-terminal domain antibody for 2 hr at 0° C. Immune complexes were adsorbed to Protein-G Sepharose beads (Pharmacia) at 4° C. for 30 min, washed twice with ice-cold RIPA buffer, once with 0.1M Tris-HCl, pH 8.0, containing 0.5M LiCl, and once with RIPA. The resulting immunoprecipitates were solubilized with SDS-PAGE sample buffer and stored for further analysis.
The anti-eck immunoprecipitates from treated and untreated LIM 2405 cell lysates were resolved on 7.5% polyacrylamide gels as previously described (Boyle et al. Meth. Enzymol. 201, 110 (1991)). […] Immune complexes were detected by chemiluminescent exposure (ECL, Amersham) to Kodak X-OMAT X-ray film at room temperature for 0.5-5 min.
Eck receptor immunoprecipitates from ^32 P-labelled LIM 2405 cells were resolved by SDS-PAGE, and the gel dried directly without fixation. After exposure to X-ray film the labelled eck receptor band was isolated and phosphoamino acid content determined as described (Boyle et al. Meth. Enzymol. 201, 110 (1991))

[2] = test system: extracellular domain of the kit receptor; assay: BIAcore binding to surfaces activated with kit receptor extracellular domain
From the text: SDS-PAGE analysis of the fractions from this column confirmed that EBP was co-eluted with the receptor binding activity.

[3] = 5 ug per chamber per day x 9 days, harvest day 12, mean ± SEM
[4] = 5 ug per chamber per day x 9 days, harvest day 12, mean ± SEM, listed as rPDGF

PDGF [reference compound] was tested, and the DNA [1, 3] was 356 ± 64 µg, the HYDROXY-PROLINE [1, 3] was 478.4 ± 85.9 µg and the “TOTAL GYLCOSAMINO-GLYCANS” value [1, 3] was 725.2 ± 104.4 µg. The “TOTAL PROTEIN” value [1, 3] was 7.46 ± 1.52 mg, the “WET WEIGHT” value [1, 3] was 417.4 ± 81.8 mg and the DNA [1, 4] was “significantly increased”. For the same substance, the “TOTAL GYLCOSAMINO-GLYCANS” value [1, 4] was “significantly increased”, the “TOTAL PROTEIN” value [1, 4] was “significantly increased” and the “WET WEIGHT” value [1, 4] was “significantly increased”. For the same substance, the “increase in hydroxyproline content over control chambers” value ([1]; PDGF treated chambers (5 μg per day)) was 82%.

In the case of “EGF: growth factor used to treat LIM 2405 cells as specificity control [reference compound]”, the eck receptor phosphorylation (eck receptor (p130^eck)) was “nor does EGF treatment induce eck phosphorylation”.

“rSCF: the kit ligand [reference compound]” was tested, and the “binding to BIAcore surfaces activated with the extracellular domain of the kit receptor” value [2] was “could bind”.
